Results on three compounds are retold here after patent publication US10787476B2, “Glycoamino acid and use thereof” (AJINOMOTO CO., INC., priority 2013, dated 2020).

Data set [1] can be described thus: Heat stability of aqueous Glc-Leu solution (free Leu by HPLC). To be noted: aqueous solution 100 mg/dl; for Leu liberated: 90° C. The format is physicochemical. The protocol: On the other hand, free Leu was not confirmed at 60° C. even after 72 hr, and sufficient heat stability as an amino acid precursor was shown.
A short description of data set [2]: Dissolution rate in stirring water. It is filed as physicochemical. The conditions noted are these: for dissolution rate: inside temperature 34° C., n=2. The protocol:
Leu and Glc-Leu were each added to stirring water (inside temperature 34° C.) in a hot-water bath at 35° C., and the dissolution rate was measured. The amount of the sample added and the measurement results are as shown below (n=2). As compared to Leu, Glc-Leu was dissolved 46 times faster in equal weight and 17 times faster in equimolar amount.

The subject of a further data set is α/β-glucosidase. The data set is described as follows: Glucosidase treatment, amino acid production amount by HPLC. The format is in vitro ADME. The conditions noted are these: phosphate buffer pH 5.5, 37° C., 30 min later. As for the experimental part: Glc-Phe, Glc-Leu, Glc-Lys, Glc-Glu and Glc-DOPA were each dissolved in phosphate buffer (pH 5.5) at the ratio shown in Table 2, α/β-glucosidase in the amount shown in Table 2 was added, and the mixture was stirred in a hot-water bath at 37° C. The mixture was diluted 2-fold with 1% aqueous phosphoric acid solution, and analyzed by HPLC. […] As for Glc-Leu, about 80% of leucine was liberated 1 hr later; as for Glc-Lys, about 20% of lysine was liberated 1 hr later; as for Glc-Glu, about 40% of glutamic acid was liberated 1 hr later; and as for Glc-DOPA, about 70% of 3,4-dihydroxyphenylalanine was liberated 1 hr later.

Setting [3] is: equivalent weight, 300 mg/25 ml water.

Structures are written as SMILES.

For the compound `CC(C)C[C@H](NC(=O)OC1O[C@H](CO)[C@@H](O)[C@H](O)[C@H]1O)C(=O)O` (stereo partly drawn) [Glc-Leu, N-(α/β-D-glucopyranosyloxycarbonyl)-L-leucine], the “free Leu” value in data set [1] (60° C., after 72 hr) is on record as “not confirmed”. The Leu liberated result is “liberated almost completely” in data set [1] (72 hr) and “about 50%” in data set [1] (about 6 hr). Further, the dissolution rate in data set [2] (setting [3]) stood at 26 s. Further, the “dissolved faster as compared to Leu” value in data set [2] (in equal weight) is on record as 46 times; in data set [2] (in equimolar amount), 17 times.

As for `O=C(N[C@@H](Cc1ccccc1)C(=O)O)OC1O[C@H](CO)[C@@H](O)[C@H](O)[C@H]1O` (stereo partly drawn) [Glc-Phe, N-(α/β-D-glucopyranosyloxycarbonyl)-L-phenylalanine], the remaining glycoamino acid result in the data set with α/β-glucosidase is “almost disappeared”.

For `CC(C)C[C@H](N)C(=O)O` [Leu, L-leucine, reference compound], the dissolution rate result was “(450 sec)” in data set [2] (equimolar amount to glycoamino acid, 111 mg (0.85 mmol)/25 ml water) and “(1203 sec)” in data set [2] (setting [3]).
